Reference: patent US20230002367A1, “BIFUNCTIONAL COMPOUNDS” (Hoffmann-La Roche Inc., priority 2019, published 2023)

Target: T1, SMARCA2 (Homo sapiens, UniProt P51531)
T1 construct: endogenous in cells
Assay: SMARCA2 HiBiT degradation assay (cellular)
Type: cell-based
Conditions: for Emax: A549, Emax = amount of residual protein remaining in the cell following compound treatment; for DC50: SMARCA2 HiBiT cells, luminescence readout, 11-point titration from 10 μM, 6 hours or 16 hours, read-out: HiBit A549 SMARCA2 IP

T1 sequence (P51531 whole entry): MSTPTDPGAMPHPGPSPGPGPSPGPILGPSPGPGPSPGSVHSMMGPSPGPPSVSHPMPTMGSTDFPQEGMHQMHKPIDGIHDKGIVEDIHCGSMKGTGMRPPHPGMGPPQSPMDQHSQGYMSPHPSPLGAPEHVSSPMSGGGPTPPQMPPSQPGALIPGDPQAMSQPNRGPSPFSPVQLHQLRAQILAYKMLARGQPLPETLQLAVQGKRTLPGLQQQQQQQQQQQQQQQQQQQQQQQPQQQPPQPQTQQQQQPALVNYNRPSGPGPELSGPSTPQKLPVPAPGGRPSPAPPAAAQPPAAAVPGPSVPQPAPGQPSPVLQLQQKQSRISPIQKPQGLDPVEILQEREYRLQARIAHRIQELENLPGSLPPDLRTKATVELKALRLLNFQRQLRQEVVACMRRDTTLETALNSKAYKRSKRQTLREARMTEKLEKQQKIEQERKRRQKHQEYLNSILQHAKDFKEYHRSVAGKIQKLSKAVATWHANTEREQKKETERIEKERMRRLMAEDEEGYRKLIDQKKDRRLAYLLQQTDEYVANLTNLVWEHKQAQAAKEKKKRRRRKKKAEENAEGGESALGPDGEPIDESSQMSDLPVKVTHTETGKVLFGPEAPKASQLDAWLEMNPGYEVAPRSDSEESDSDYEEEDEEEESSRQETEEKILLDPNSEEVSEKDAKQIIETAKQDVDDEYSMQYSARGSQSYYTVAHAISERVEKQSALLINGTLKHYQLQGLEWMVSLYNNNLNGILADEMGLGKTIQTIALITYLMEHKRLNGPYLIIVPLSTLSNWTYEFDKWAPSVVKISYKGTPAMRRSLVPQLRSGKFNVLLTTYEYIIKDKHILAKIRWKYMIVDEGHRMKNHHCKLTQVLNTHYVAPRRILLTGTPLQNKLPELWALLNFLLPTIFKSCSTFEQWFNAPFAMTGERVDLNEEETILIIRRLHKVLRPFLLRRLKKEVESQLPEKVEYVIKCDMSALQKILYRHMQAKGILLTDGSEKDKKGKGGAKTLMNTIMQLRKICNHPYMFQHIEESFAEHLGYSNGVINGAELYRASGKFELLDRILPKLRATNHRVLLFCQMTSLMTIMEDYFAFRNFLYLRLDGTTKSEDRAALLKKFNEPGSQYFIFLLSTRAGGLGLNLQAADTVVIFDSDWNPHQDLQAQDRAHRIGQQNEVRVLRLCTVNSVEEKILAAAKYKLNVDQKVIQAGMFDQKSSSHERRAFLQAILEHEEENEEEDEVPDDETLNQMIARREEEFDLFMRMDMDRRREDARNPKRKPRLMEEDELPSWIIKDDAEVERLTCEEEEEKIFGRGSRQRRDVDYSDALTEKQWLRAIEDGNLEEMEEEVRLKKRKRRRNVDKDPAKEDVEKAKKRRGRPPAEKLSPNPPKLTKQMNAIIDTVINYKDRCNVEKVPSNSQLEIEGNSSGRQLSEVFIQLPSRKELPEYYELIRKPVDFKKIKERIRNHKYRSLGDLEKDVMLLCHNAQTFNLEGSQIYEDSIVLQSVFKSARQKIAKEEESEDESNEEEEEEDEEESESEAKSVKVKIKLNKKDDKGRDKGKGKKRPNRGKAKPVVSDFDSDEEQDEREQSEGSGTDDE

| Emax | DC50 | SMILES |
| --- | --- | --- |
| 51% | 1300 nM | Cc1ncsc1-c1ccc(CNC(=O)[C@@H]2C[C@@H](O)CN2C(=O)[C@@H](NC(=O)CCCCCCCN2CCN(C(=O)CN(C)Cc3ccc(-c4cc(-c5ccccc5O)nnc4N)cc3)CC2)C(C)(C)C)cc1 [Example 87, (2S,4R)-1-[(2S)-2-[8-[4-[2-[[4-[3-amino-6-(2-hydroxyphenyl)pyridazin-4-yl]phenyl]methyl-methyl-amino]acetyl]piperazin-1-yl]octanoylamino]-3,3-dimethyl-butanoyl]-4-hydroxy-N-[[4-(4-methylthiazol-5-yl)phenyl]methyl]pyrrolidine-2-carboxamide] |
| 56% | 1010 nM | Cc1ncsc1-c1ccc(CNC(=O)[C@@H]2C[C@@H](O)CN2C(=O)[C@@H](NC(=O)CCCCCCCCC(=O)NC2C3CCC2CN(c2cc(-c4ccccc4O)nnc2N)C3)C(C)(C)C)cc1 (stereo partly drawn) [Example 89, N-[3-[3-amino-6-(2-hydroxyphenyl)pyridazin-4-yl]-3-azabicyclo[3.2.1]octan-8-yl]-N′-[(1S)-1-[(2S,4R)-4-hydroxy-2-[[4-(4-methylthiazol-5-yl)phenyl]methylcarbamoyl]pyrrolidine-1-carbonyl]-2,2-dimethyl-propyl]decanediamide] |
| 43% | 693 nM | Cc1ncsc1-c1ccc([C@H](C)NC(=O)[C@@H]2C[C@@H](O)CN2C(=O)[C@@H](NC(=O)CCCCCC(=O)N2CCN(c3cccc(OC4CN(c5cc(-c6ccccc6O)nnc5N)C4)c3)CC2)C(C)(C)C)cc1 [Example 94, (2S,4R)-1-[(2S)-2-[[7-[4-[3-[1-[3-amino-6-(2-hydroxyphenyl)pyridazin-4-yl]azetidin-3-yl]oxyphenyl]piperazin-1-yl]-7-oxo-heptanoyl]amino]-3,3-dimethyl-butanoyl]-4-hydroxy-N-[(1S)-1-[4-(4-methylthiazol-5-yl)phenyl]ethyl]pyrrolidine-2-carboxamide] |
| 50% | 2440 nM | Cc1ncsc1-c1ccc(CNC(=O)[C@@H]2C[C@@H](O)CN2C(=O)[C@@H](NC(=O)CCCCCCCCC(=O)N[C@H]2C[C@H](Oc3cc(-c4ccccc4O)nnc3N)C2)C(C)(C)C)cc1 [Example 95, N-[3-[3-amino-6-(2-hydroxyphenyl)pyridazin-4-yl]oxycyclobutyl]-N′-[(1S)-1-[(2S,4R)-4-hydroxy-2-[[4-(4-methylthiazol-5-yl)phenyl]methylcarbamoyl]pyrrolidine-1-carbonyl]-2,2-dimethyl-propyl]decanediamide] |
| 28% | 200 nM | Cc1ncsc1-c1ccc([C@H](C)NC(=O)[C@@H]2C[C@@H](O)CN2C(=O)[C@@H](NC(=O)CCCCCCCCC(=O)N2CCN(c3cccc(OC4CN(c5cc(-c6ccccc6O)nnc5N)C4)c3)CC2)C(C)(C)C)cc1 [Example 96, (2S,4R)-1-[(2S)-2-[[10-[4-[3-[1-[3-amino-6-(2-hydroxyphenyl)pyridazin-4-yl]azetidin-3-yl]oxyphenyl]piperazin-1-yl]-10-oxo-decanoyl]amino]-3,3-dimethyl-butanoyl]-4-hydroxy-N-[(1S)-1-[4-(4-methylthiazol-5-yl)phenyl]ethyl]pyrrolidine-2-carboxamide] |
| 59% | 827 nM | Cc1ncsc1-c1ccc(CNC(=O)[C@@H]2C[C@@H](O)CN2C(=O)[C@@H](NC(=O)CCCCCCCCC(=O)N2CCC(CNC(=O)C3(c4ccccc4)CCN(c4cc(-c5ccccc5O)nnc4N)CC3)CC2)C(C)(C)C)cc1 [Example 99, 1-[3-amino-6-(2-hydroxyphenyl)pyridazin-4-yl]-N-[[1-[10-[[(1S)-1-[(2S,4R)-4-hydroxy-2-[[4-(4-methylthiazol-5-yl)phenyl]methylcarbamoyl]pyrrolidine-1-carbonyl]-2,2-dimethyl-propyl]amino]-10-oxo-decanoyl]-4-piperidyl]methyl]-4-phenyl-piperidine-4-carboxamide] |
| 62% | 998 nM | Cc1ncsc1-c1ccc(CNC(=O)[C@@H]2C[C@@H](O)CN2C(=O)[C@@H](NC(=O)CCCCCCCCC(=O)N2CCN(c3ccc(N4CCCC(Oc5cc(-c6ccccc6N)nnc5N)C4)cc3)CC2)C(C)(C)C)cc1 (stereo partly drawn) [Example 100, (2S,4R)-1-[(2S)-2-[[10-[4-[4-[3-[3-amino-6-(2-aminophenyl)pyridazin-4-yl]oxy-1-piperidyl]phenyl]piperazin-1-yl]-10-oxo-decanoyl]amino]-3,3-dimethyl-butanoyl]-4-hydroxy-N-[[4-(4-methylthiazol-5-yl)phenyl]methyl]pyrrolidine-2-carboxamide] |
| 38% | 101 nM | Cc1ncsc1-c1ccc([C@H](C)NC(=O)[C@@H]2C[C@@H](O)CN2C(=O)[C@@H](NC(=O)CCCCCCCCC(=O)N2CCN(C(=O)c3cccc(OC4CN(c5cc(-c6ccccc6O)nnc5N)C4)c3)CC2)C(C)(C)C)cc1 [Example 101, (2S,4R)-1-[(2S)-2-[[10-[4-[3-[1-[3-amino-6-(2-hydroxyphenyl)pyridazin-4-yl]azetidin-3-yl]oxybenzoyl]piperazin-1-yl]-10-oxo-decanoyl]amino]-3,3-dimethyl-butanoyl]-4-hydroxy-N-[(1S)-1-[4-(4-methylthiazol-5-yl)phenyl]ethyl]pyrrolidine-2-carboxamide] |

Continued, compound first:

| SMILES | Emax | DC50 |
| --- | --- | --- |
| Cc1ncsc1-c1ccc(CNC(=O)[C@@H]2C[C@@H](O)CN2C(=O)[C@@H](NC(=O)CCCCCCCCC(=O)N2CCN(CCOc3ccc(N4C5CCC4CN(c4cc(-c6ccccc6O)nnc4N)C5)cc3)CC2)C(C)(C)C)cc1 [Example 68, (2S,4R)-1-[(2S)-2-[[10-[4-[2-[4-[3-[3-amino-6-(2-hydroxyphenyl)pyridazin-4-yl]-3,8-diazabicyclo[3.2.1]octan-8-yl]phenoxy]ethyl]piperazin-1-yl]-10-oxo-decanoyl]amino]-3,3-dimethyl-butanoyl]-4-hydroxy-N-[[4-(4-methylthiazol-5-yl)phenyl]methyl]pyrrolidine-2-carboxamide] | 50% | 2320 nM |
| Cc1ncsc1-c1ccc([C@H](C)NC(=O)[C@@H]2C[C@@H](O)CN2C(=O)[C@@H](NC(=O)CCC(=O)N2CCN(CCOc3cccc(CCOc4cc(-c5ccccc5O)nnc4N)c3)CC2)C(C)(C)C)cc1 [Example 73, (2S,4R)-1-[(2S)-2-[[4-[4-[2-[3-[2-[3-amino-6-(2-hydroxyphenyl)pyridazin-4-yl]oxyethyl]phenoxy]ethyl]piperazin-1-yl]-4-oxo-butanoyl]amino]-3,3-dimethyl-butanoyl]-4-hydroxy-N-[(1S)-1-[4-(4-methylthiazol-5-yl)phenyl]ethyl]pyrrolidine-2-carboxamide] | 29% | 1650 nM |
| Cc1ncsc1-c1ccc(CNC(=O)[C@@H]2C[C@@H](O)CN2C(=O)[C@@H](NC(=O)CCCCCCCCC(=O)N2CCN(Cc3cccc(-c4cc(-c5ccccc5O)nnc4N)c3F)CC2)C(C)(C)C)cc1 [Example 74, (2S,4R)-1-[(2S)-2-[[10-[4-[[3-[3-amino-6-(2-hydroxyphenyl)pyridazin-4-yl]-2-fluoro-phenyl]methyl]piperazin-1-yl]-10-oxo-decanoyl]amino]-3,3-dimethyl-butanoyl]-4-hydroxy-N-[[4-(4-methylthiazol-5-yl)phenyl]methyl]pyrrolidine-2-carboxamide] | 63% | 575 nM |
| Cc1ncsc1-c1ccc([C@H](C)NC(=O)[C@@H]2C[C@@H](O)CN2C(=O)[C@@H](NC(=O)CCCCCC(=O)N2CCN(Cc3cccc(OC4CN(c5cc(-c6ccccc6O)nnc5N)C4)c3)CC2)C(C)(C)C)cc1 [Example 83, (2S,4R)-1-[(2S)-2-[[7-[4-[[3-[1-[3-amino-6-(2-hydroxyphenyl)pyridazin-4-yl]azetidin-3-yl]oxyphenyl]methyl]piperazin-1-yl]-7-oxo-heptanoyl]amino]-3,3-dimethyl-butanoyl]-4-hydroxy-N-[(1S)-1-[4-(4-methylthiazol-5-yl)phenyl]ethyl]pyrrolidine-2-carboxamide] | 44% | 789 nM |
| Cc1ncsc1-c1ccc(CNC(=O)[C@@H]2C[C@@H](O)CN2C(=O)[C@@H](NC(=O)CCCCCCCCCCC(=O)N2C3CCC2CN(c2cc(-c4ccccc4O)nnc2N)C3)C(C)(C)C)cc1 [Example 84, (2S,4R)-1-[(2S)-2-[[12-[3-[3-Amino-6-(2-hydroxyphenyl)pyridazin-4-yl]-3,8-diazabicyclo[3.2.1]octan-8-yl]-12-oxo-dodecanoyl]amino]-3,3-dimethyl-butanoyl]-4-hydroxy-N-[[4-(4-methylthiazol-5-yl)phenyl]methyl]pyrrolidine-2-carboxamide] | 38% | 902 nM |
| Cc1ncsc1-c1ccc(CNC(=O)[C@@H]2C[C@@H](O)CN2C(=O)[C@@H](NC(=O)CCCCCC(=O)N2C3CCC2CN(c2cc(-c4ccccc4O)nnc2N)C3)C(C)(C)C)cc1 [Example 85, (2S,4R)-1-[(2S)-2-[[7-[3-[3-Amino-6-(2-hydroxyphenyl)pyridazin-4-yl]-3,8-diazabicyclo[3.2.1]octan-8-yl]-7-oxo-heptanoyl]amino]-3,3-dimethyl-butanoyl]-4-hydroxy-N-[[4-(4-methylthiazol-5-yl)phenyl]methyl]pyrrolidine-2-carboxamide] | 31% | 2190 nM |
| Cc1ncsc1-c1ccc([C@H](C)NC(=O)[C@@H]2C[C@@H](O)CN2C(=O)[C@@H](NC(=O)CCCCCCCCC(=O)N2CCN(Cc3cccc(OC4CN(c5cc(-c6ccccc6O)nnc5N)C4)c3)CC2)C(C)(C)C)cc1 [Example 86, (2S,4R)-1-[(2S)-2-[[10-[4-[[3-[1-[3-amino-6-(2-hydroxyphenyl)pyridazin-4-yl]azetidin-3-yl]oxyphenyl]methyl]piperazin-1-yl]-10-oxo-decanoyl]amino]-3,3-dimethyl-butanoyl]-4-hydroxy-N-[(1S)-1-[4-(4-methylthiazol-5-yl)phenyl]ethyl]pyrrolidine-2-carboxamide] | 25% | 223 nM |
